From patent publication US10604487B2, “Pyridinol derivative or pharmaceutically acceptable salt thereof, and pharmaceutical composition containing same as active ingredient” (Research Cooperation Foundation of Yeungnam University, priority 2016, dated 2020)

Experiments:
[1] = Cytotoxicity test (MTT), U937; format: cell-based; conditions: human, U937, 48 h; for viability at 48 h, 0.01 µM / viability at 48 h, 0.1 µM / viability at 48 h, 1 µM / viability at 48 h, 10 µM / viability at 48 h, 100 µM: U937 cells (monocytic blood cancer-derived cell line), read-out: Cell viability (% of control); for IC50 at 48 h: U937 cells
Description: (§1) The human colorectal cancer cell line HT-29 and the monocytic blood cancer-derived cell line U937 were cultured in a RPMI 1640 medium containing 10% FBS and 1% penicillin/streptomycin (PS) at 37° C. under a condition of 5% CO2, and when the cells used herein were grown to 80% or more, they were subcultured at a ratio of 1:3.
(§2) Each type of cells were cultured in a 96 well plate at a concentration of 1×10^5 cells/cm2, treated with a test compound by concentration in a medium only containing 1% FBS and 1% PS at 37° C. under a condition of 5% CO2 for 48 hours and reacted with 5 mg/mL of a 3-[4,5-dimethylthiazol-2-yl]-2,5-diphenyltetrazolium bromide (MTT) reagent for 4 hours, and then the medium was completely removed, the cells were treated with DMSO, formazan crystals were dissolved for 30 minutes, and then absorbance was measured at 540 nm.

[2] = tested on: TNF-α-induced adhesion of monocytes to intestinal epithelial cells; assay: Inhibitory activity against TNF-α-induced adhesion of monocytes (U937) to intestinal epithelial cells (HT-29); format: cell-based, human; conditions: Homo sapiens, 1 μM test drug; HT-29/U937 adhesion, 10 ng/mL TNF-α; read-out: Inhibitory activity (%)
Description: HT-29 human colorectal cancer-derived epithelial cells and U937 human-derived monocytic cells were cultured in an RPMI 1640 medium containing 10% FBS and 1% penicillin/streptomycin (PS) at 37° C. under a condition of 5% CO2, and when the cells were grown to 80% or more in a culture flask, they were subcultured in a ratio of 1:3 to be used in this test. The HT-29 cells were cultured in a 24-well plate at a concentration of 2×10^5 cells/cm2, and then the medium only containing 1% FBS and 1% PS was pretreated with a test drug for 1 hour. Afterward, BCECF-loaded U937 cells by being treated with 10 μg/mL of BCECF-AM at 37° C. for 30 minutes and 10 ng/mL of TNF-α reacted with the HT-29 cells previously treated with the test drug at 37° C. for 3 hours. After the reaction, the medium was removed, and then the cells were washed with PBS twice to remove U937 cells that were not adhered. In a subsequent step, for cell lysis, 0.1% Triton X-100 (0.1 M Tris) was treated to allow a reaction at room temperature for 30 minutes, and then fluorescence was measured using a Fluostar optima microplate reader (BMG LABTECH, Germany) to quantify the cells (Carvalho et al., 1996; Thapa et al., 2008).

[3] = Cytotoxicity test (MTT), HT-29; format: cell-based; conditions: human, HT-29, 48 h; for viability at 48 h, 0.01 µM / viability at 48 h, 0.1 µM / viability at 48 h, 1 µM / viability at 48 h, 10 µM / viability at 48 h, 100 µM: HT-29 cells (colorectal cancer cell line), read-out: Cell viability (% of control); for IC50 at 48 h: HT-29 cells, read-out: IC50 (μM), cytotoxicity
Description: as §1, §2

Row | SMILES | viability at 48 h, 0.01 µM [1] [%] | viability at 48 h, 0.1 µM [1] [%] | viability at 48 h, 1 µM [1] [%] | viability at 48 h, 10 µM [1] [%] | viability at 48 h, 100 µM [1] [%] | IC50 at 48 h [1] [µM] | inhibition at 1 µM [2] [%] | viability at 48 h, 0.01 µM [3] [%] | viability at 48 h, 0.1 µM [3] [%] | viability at 48 h, 1 µM [3] [%] | viability at 48 h, 10 µM [3] [%] | viability at 48 h, 100 µM [3] [%] | IC50 at 48 h [3] [µM]
1 | Cc1nc(NC(=O)Nc2ccc(Cl)cc2)c(C)c(C)c1O [Compound 16-3, 1-(4-Chlorophenyl)-3-(5-hydroxy-3,4,6-trimethylpyridin-2-yl)urea] | 89.4 ± 2.7 | 89.7 ± 3.1 | 81 ± 3.1 | 81 ± 2.2 | 66 ± 0.1 | > 100 | 7.7 | 104 ± 6.1 | 102 ± 6.4 | 103 ± 11.1 | 89.3 ± 4.8 | 69.2 ± 6.1 | > 100
2 | Cc1cccc(C(C)(C)C)c1NC(=O)Nc1nc(C)c(O)c(C)c1C [Compound 16-4, 1-(2-tert-butyl-6-methylphenyl)-3-(5-hydroxy-3,4,6-trimethylpyridin-2-yl)urea] | 95 ± 2.9 | 91.2 ± 1.9 | 91.3 ± 1.2 | 85.4 ± 0.2 | 75.5 ± 1.7 | > 100 | 34.3 | 76.6 ± 6.9 | 76.8 ± 5 | 74.7 ± 6 | 62.1 ± 2.9 | 43.6 ± 1.8 | 34.7
3 | Cc1nc(NC(=O)Nc2cccc3ccccc23)c(C)c(C)c1O [Compound 16-5, 1-(5-hydroxy-3,4,6-trimethylpyridin-2-yl)-3-(naphthalen-1-yl)urea] | 88.1 ± 1.9 | 85.4 ± 6.4 | 90.9 ± 1.2 | 88.5 ± 2.8 | 79.6 ± 2.7 | > 100 | 20.2 | 105 ± 1.1 | 94.3 ± 2.1 | 78.6 ± 10.1 | 73.4 ± 5.6 | 76.7 ± 1.1 | > 100
4 | Cc1nc(NC(=O)NS(=O)(=O)c2ccccc2)c(C)c(C)c1O [Compound 16-6, N-((5-hydroxy-3,4,6-trimethylpyridin-2-yl)carbamoyl)benzenesulfonamide] | 91.6 ± 2.6 | 94.3 ± 2.6 | 85.8 ± 2.7 | 83.5 ± 1.1 | 84.9 ± 2 | > 100 | 17.5 | 90 ± 3.5 | 85.4 ± 0.9 | 76 ± 7.2 | 77.9 ± 3.5 | 53.6 ± 2.5 | > 100
5 | CCCCNC(=S)Nc1nc(C)c(O)c(C)c1C [Compound 18-1, 1-butyl-3-(5-hydroxy-3,4,6-trimethylpyridin-2-yl)thiourea] | 95.4 ± 0.6 | 94.9 ± 1.2 | 92.9 ± 0.6 | 91 ± 0.9 | 55 ± 1.1 | > 100 | -19.9 | 93.5 ± 3.4 | 95.2 ± 1.7 | 96.9 ± 1.4 | 96.5 ± 2.3 | 60.3 ± 0.5 | > 100
6 | Cc1nc(NC(=S)NC2CCCCC2)c(C)c(C)c1O [Compound 18-3, 1-cyclohexyl-3-(5-hydroxy-3,4,6-trimethylpyridin-2-yl)thiourea] | 88.8 ± 7 | 93.1 ± 1 | 97.6 ± 1.3 | 87.7 ± 2 | 84.3 ± 1.5 | > 100 | ≥ 50 | 90.9 ± 5.1 | 80.5 ± 10.4 | 66.8 ± 6.2 | 67 ± 5 | 51.3 ± 6.7 | > 100
7 | Cc1nc(NC(=S)Nc2ccccc2)c(C)c(C)c1O [Compound 18-4, 1-(5-hydroxy-3,4,6-trimethylpyridin-2-yl)-3-phenylthiourea] | 99.5 ± 2.1 | 101 ± 1.9 | 96.7 ± 1.7 | 96.1 ± 1.4 | 70.6 ± 0.8 | > 100 | 49.7 | 96.6 ± 2.1 | 97 ± 4.4 | 99 ± 5 | 96.6 ± 2.4 | 76 ± 4.9 | > 100
8 | Cc1nc(NC(=S)Nc2ccc(Cl)cc2)c(C)c(C)c1O [Compound 18-6, 1-(4-chlorophenyl)-3-(5-hydroxy-3,4,6-trimethylpyridin-2-yl)thiourea] | 99.6 ± 0.5 | 96.8 ± 1.9 | 91.6 ± 2.6 | 86.4 ± 1.7 | 80.7 ± 2.5 | > 100 | ≥ 50 | 95.2 ± 3.2 | 86.6 ± 4.9 | 83.6 ± 3.3 | 72.8 ± 2.8 | 65.3 ± 1.9 | > 100
9 | COC(=O)Nc1nc(C)c(O)c(C)c1C [Compound 20-1, methyl (5-hydroxy-3,4,6-trimethylpyridin-2-yl)carbamate] | 97.5 ± 1.6 | 95.1 ± 5.3 | 93.7 ± 1.2 | 80.9 ± 12.8 | 89.6 ± 1 | > 100 | 9.8 | 89.7 ± 6.3 | 84.9 ± 1.9 | 85 ± 3.4 | 82.6 ± 1.3 | 73.7 ± 4.5 | > 100
10 | CCCCOC(=O)Nc1nc(C)c(O)c(C)c1C [Compound 20-2, butyl (5-hydroxy-3,4,6-trimethylpyridin-2-yl)carbamate] | 87.4 ± 1.3 | 84.4 ± 2.3 | 84.6 ± 2 | 80.7 ± 0.8 | 74.4 ± 3.8 | > 100 | 26.9 | 102 ± 1.4 | 102 ± 3.2 | 98.1 ± 3.4 | 98.3 ± 3.8 | 67.6 ± 1.9 | > 100
11 | Cc1nc(NC(=O)OCC(C)C)c(C)c(C)c1O [Compound 20-3, isobutyl (5-hydroxy-3,4,6-trimethylpyridin-2-yl)carbamate] | 86.3 ± 0.4 | 86.3 ± 0.9 | 80.9 ± 2.1 | 82.2 ± 0.5 | 72.5 ± 1.9 | > 100 | 6 | 101 ± 1.9 | 91 ± 3.6 | 93.3 ± 4.7 | 83.7 ± 3.3 | 71.2 ± 3.4 | > 100
12 | Cc1nc(NC(=O)OCCCl)c(C)c(C)c1O [Compound 20-4, 2-Chloroethyl (5-hydroxy-3,4,6-trimethylpyridin-2-yl)carbamate] | 86.1 ± 3.1 | 82.7 ± 1 | 83.4 ± 1.3 | 83 ± 0.5 | 79.2 ± 1.3 | > 100 | -1.5 | 97.4 ± 2.2 | 94.7 ± 3.3 | 88.6 ± 2.2 | 90.2 ± 5.3 | 86.7 ± 3.1 | > 100
